Measurements: ChEMBL document CHEMBL3046685, “Otebo bean (Phaseolus vulgaris) sensitivity to pre-emergence herbicides” (Crop Prot, 2006)

Legend:
Phaseolus vulgaris [1] = experiment: Phytotoxicity in Phaseolus vulgaris (otebo bean) assessed as plant height at 2000 g ai/ha applied as spray during pre-emergence treatment for 1 to 2 days measured 28 days post emergence (reference value: 29 cm); format: organism-based; conditions: in vivo, other
Phaseolus vulgaris [2] = experiment: Phytotoxicity in Phaseolus vulgaris (otebo bean) assessed as plant height at 1000 g ai/ha applied as spray during pre-emergence treatment for 1 to 2 days measured 28 days post emergence (reference value: 29 cm); format: organism-based; conditions: in vivo, other
Phaseolus vulgaris [3] = experiment: Phytotoxicity in Phaseolus vulgaris (otebo bean) assessed as shoot dry weight at 1000 g ai/ha applied as spray during pre-emergence treatment for 1 to 2 days measured 42 days post emergence (reference value: 164 g); format: organism-based; conditions: in vivo, other
Phaseolus vulgaris [4] = experiment: Increase in Phaseolus vulgaris (otebo bean) yield at 2000 g ai/ha applied as spray during pre-emergence treatment for 1 to 2 days (reference value: 3.8 t/ha); format: functional
Phaseolus vulgaris [5] = experiment: Increase in Phaseolus vulgaris (otebo bean) yield at 1000 g ai/ha applied as spray during pre-emergence treatment for 1 to 2 days (reference value: 3.8 t/ha); format: functional
Phaseolus vulgaris [6] = experiment: Phytotoxicity in Phaseolus vulgaris (otebo bean) assessed as visual injury at 2000 g ai/ha applied as spray during pre-emergence treatment for 1 to 2 days measured 7 days post emergence relative to untreated control; format: organism-based; conditions: in vivo, other
Phaseolus vulgaris [7] = experiment: Phytotoxicity in Phaseolus vulgaris (otebo bean) assessed as change in moisture content at 1000 to 2000 g ai/ha applied as spray during preemergence treatment for 1 to 2 days; format: organism-based; conditions: in vivo, other
Phaseolus vulgaris [8] = experiment: Phytotoxicity in Phaseolus vulgaris (otebo bean) assessed as shoot dry weight at 2000 g ai/ha applied as spray during pre-emergence treatment for 1 to 2 days measured 42 days post emergence (reference value: 164 g); format: organism-based; conditions: in vivo, other
Phaseolus vulgaris [9] = experiment: Phytotoxicity in Phaseolus vulgaris (otebo bean) assessed as visual injury at 2000 g ai/ha applied as spray during pre-emergence treatment for 1 to 2 days measured 28 days post emergence relative to untreated control; format: organism-based; conditions: in vivo, other
Phaseolus vulgaris [10] = experiment: Phytotoxicity in Phaseolus vulgaris (otebo bean) assessed as visual injury at 1000 g ai/ha applied as spray during pre-emergence treatment for 1 to 2 days measured 28 days post emergence relative to untreated control; format: organism-based; conditions: in vivo, other
Phaseolus vulgaris [11] = experiment: Phytotoxicity in Phaseolus vulgaris (otebo bean) assessed as visual injury at 2000 g ai/ha applied as spray during pre-emergence treatment for 1 to 2 days measured 14 days post emergence relative to untreated control; format: organism-based; conditions: in vivo, other
Phaseolus vulgaris [12] = experiment: Phytotoxicity in Phaseolus vulgaris (otebo bean) assessed as visual injury at 1000 g ai/ha applied as spray during pre-emergence treatment for 1 to 2 days measured 14 days post emergence relative to untreated control; format: organism-based; conditions: in vivo, other
Phaseolus vulgaris [13] = experiment: Phytotoxicity in Phaseolus vulgaris (otebo bean) assessed as visual injury at 1000 g ai/ha applied as spray during pre-emergence treatment for 1 to 2 days measured 7 days post emergence relative to untreated control; format: organism-based; conditions: in vivo, other
Phaseolus vulgaris [14] = experiment: Phytotoxicity in Phaseolus vulgaris (otebo bean) assessed as plant height at 1250 g ai/ha applied as spray during pre-emergence treatment for 1 to 2 days measured 28 days post emergence (reference value: 29 cm); format: organism-based; conditions: in vivo, other
Vigna angularis [15] = experiment: Phytotoxicity in Vigna angularis (adzuki bean) assessed as reduction in shoot dry weight at 2500 g ai/ha applied prior to planting relative to control; format: organism-based; parameters: scale not given: the % may be the effect or the level left; conditions: in vivo, other
Phaseolus vulgaris [16] = experiment: Increase in Phaseolus vulgaris (otebo bean) yield at 2500 g ai/ha applied as spray during pre-emergence treatment for 1 to 2 days (reference value: 3.8 t/ha); format: functional
Phaseolus vulgaris [17] = experiment: Increase in Phaseolus vulgaris (otebo bean) yield at 1250 g ai/ha applied as spray during pre-emergence treatment for 1 to 2 days (reference value: 3.8 t/ha); format: functional
Vigna angularis [18] = experiment: Phytotoxicity in Vigna angularis (adzuki bean) assessed as visual injury at 2500 g ai/ha applied prior to planting relative to control; format: organism-based; conditions: in vivo, other
Vigna angularis [19] = experiment: Phytotoxicity in Vigna angularis (adzuki bean) assessed as reduction in crop yield at 2500 g ai/ha applied prior to planting relative to control; format: organism-based; conditions: in vivo, other
Phaseolus vulgaris [20] = experiment: Phytotoxicity in Phaseolus vulgaris (otebo bean) assessed as change in moisture content at 1250 to 2500 g ai/ha applied as spray during preemergence treatment for 1 to 2 days; format: organism-based; conditions: in vivo, other
Phaseolus vulgaris [21] = experiment: Phytotoxicity in Phaseolus vulgaris (otebo bean) assessed as visual injury at 1250 g ai/ha applied as spray during pre-emergence treatment for 1 to 2 days measured 7 days post emergence relative to untreated control; format: organism-based; conditions: in vivo, other
Phaseolus vulgaris [22] = experiment: Phytotoxicity in Phaseolus vulgaris (otebo bean) assessed as shoot dry weight at 2500 g ai/ha applied as spray during pre-emergence treatment for 1 to 2 days measured 42 days post emergence (reference value: 164 g); format: organism-based; conditions: in vivo, other
Phaseolus vulgaris [23] = experiment: Phytotoxicity in Phaseolus vulgaris (otebo bean) assessed as shoot dry weight at 1250 g ai/ha applied as spray during pre-emergence treatment for 1 to 2 days measured 42 days post emergence (reference value: 164 g); format: organism-based; conditions: in vivo, other
Phaseolus vulgaris [24] = experiment: Phytotoxicity in Phaseolus vulgaris (otebo bean) assessed as plant height at 2500 g ai/ha applied as spray during pre-emergence treatment for 1 to 2 days measured 28 days post emergence (reference value: 29 cm); format: organism-based; conditions: in vivo, other
Phaseolus vulgaris [25] = experiment: Phytotoxicity in Phaseolus vulgaris (otebo bean) assessed as visual injury at 2500 g ai/ha applied as spray during pre-emergence treatment for 1 to 2 days measured 28 days post emergence relative to untreated control; format: organism-based; conditions: in vivo, other
Phaseolus vulgaris [26] = experiment: Phytotoxicity in Phaseolus vulgaris (otebo bean) assessed as visual injury at 1250 g ai/ha applied as spray during pre-emergence treatment for 1 to 2 days measured 28 days post emergence relative to untreated control; format: organism-based; conditions: in vivo, other
Phaseolus vulgaris [27] = experiment: Phytotoxicity in Phaseolus vulgaris (otebo bean) assessed as visual injury at 2500 g ai/ha applied as spray during pre-emergence treatment for 1 to 2 days measured 14 days post emergence relative to untreated control; format: organism-based; conditions: in vivo, other
Phaseolus vulgaris [28] = experiment: Phytotoxicity in Phaseolus vulgaris (otebo bean) assessed as visual injury at 1250 g ai/ha applied as spray during pre-emergence treatment for 1 to 2 days measured 14 days post emergence relative to untreated control; format: organism-based; conditions: in vivo, other
Phaseolus vulgaris [29] = experiment: Phytotoxicity in Phaseolus vulgaris (otebo bean) assessed as visual injury at 2500 g ai/ha applied as spray during pre-emergence treatment for 1 to 2 days measured 7 days post emergence relative to untreated control; format: organism-based; conditions: in vivo, other

CC1(C)CON(Cc2ccccc2Cl)C1=O [CLOMAZONE] showed an Activity (Phaseolus vulgaris [1]) of 26 cm, an Activity (Phaseolus vulgaris [2]) of 28 cm and an Activity (Phaseolus vulgaris [3]) of 143 g. For the same compound, the Crop_yield (Phaseolus vulgaris [4]) was 4.1 tons/ha, the Crop_yield (Phaseolus vulgaris [5]) was 4.5 tons/ha and the Activity (Phaseolus vulgaris [6]) was 13%. The Activity (Phaseolus vulgaris [7]) was “Non-toxic”, the Activity (Phaseolus vulgaris [8]) was 123 g and the Activity (Phaseolus vulgaris [9]) was 9%. The Activity (Phaseolus vulgaris [10]) was 2%, the Activity (Phaseolus vulgaris [11]) was 12% and the Activity (Phaseolus vulgaris [12]) was 5%. The Activity (Phaseolus vulgaris [13]) was 5%.
COCC(C)N(C(=O)CCl)c1c(C)csc1C (centres undefined) [DIMETHENAMID] was tested, and the Activity (Phaseolus vulgaris [14]) was 30 cm, the Activity (Vigna angularis [15]) was 53% and the Crop_yield (Phaseolus vulgaris [16]) was 4.5 tons/ha. The Crop_yield (Phaseolus vulgaris [17]) was 4.5 tons/ha, the Activity (Vigna angularis [18]) was 37% and the Crop_yield (Vigna angularis [19]) was 38%. For the same compound, the Activity (Phaseolus vulgaris [20]) was “Non-toxic”, the Activity (Phaseolus vulgaris [21]) was 1% and the Activity (Phaseolus vulgaris [22]) was 154 g. The Activity (Phaseolus vulgaris [23]) was 167 g, the Activity (Phaseolus vulgaris [24]) was 29 cm and the Activity (Phaseolus vulgaris [25]) was 1%. It also gave an Activity (Phaseolus vulgaris [26]) of 0%, an Activity (Phaseolus vulgaris [27]) of 3% and an Activity (Phaseolus vulgaris [28]) of 1%. For the same compound, the Activity (Phaseolus vulgaris [29]) was 4%.
